Experimental data from patent US8772480B2, “Inhibitors of PI3 kinase and/or mTOR” (priority 2009, dated 2014).

How the values were obtained:
[1] = biological target: ProfilerPro Kinase Selectivity Assay Kit kinases (Homo sapiens, UniProt O00141); assay type: biochemical; conditions: SGK1; 1 μM compound concentration
[2] = biological target: ProfilerPro Kinase Selectivity Assay Kit kinases (Homo sapiens, UniProt O14757); assay type: biochemical; conditions: CHK1; 1 μM compound concentration
[3] = biological target: ProfilerPro Kinase Selectivity Assay Kit kinases (Homo sapiens, UniProt O14965); assay type: biochemical; conditions: AURORA A; 1 μM compound concentration
[4] = biological target: ProfilerPro Kinase Selectivity Assay Kit kinases (Homo sapiens, UniProt O95819); assay type: biochemical; conditions: HGK; 1 μM compound concentration
ProfilerPro Kinase Selectivity Assay Kit kinases (Homo sapiens, UniProt O95819), sequence (O95819 2-1239 limits assumed): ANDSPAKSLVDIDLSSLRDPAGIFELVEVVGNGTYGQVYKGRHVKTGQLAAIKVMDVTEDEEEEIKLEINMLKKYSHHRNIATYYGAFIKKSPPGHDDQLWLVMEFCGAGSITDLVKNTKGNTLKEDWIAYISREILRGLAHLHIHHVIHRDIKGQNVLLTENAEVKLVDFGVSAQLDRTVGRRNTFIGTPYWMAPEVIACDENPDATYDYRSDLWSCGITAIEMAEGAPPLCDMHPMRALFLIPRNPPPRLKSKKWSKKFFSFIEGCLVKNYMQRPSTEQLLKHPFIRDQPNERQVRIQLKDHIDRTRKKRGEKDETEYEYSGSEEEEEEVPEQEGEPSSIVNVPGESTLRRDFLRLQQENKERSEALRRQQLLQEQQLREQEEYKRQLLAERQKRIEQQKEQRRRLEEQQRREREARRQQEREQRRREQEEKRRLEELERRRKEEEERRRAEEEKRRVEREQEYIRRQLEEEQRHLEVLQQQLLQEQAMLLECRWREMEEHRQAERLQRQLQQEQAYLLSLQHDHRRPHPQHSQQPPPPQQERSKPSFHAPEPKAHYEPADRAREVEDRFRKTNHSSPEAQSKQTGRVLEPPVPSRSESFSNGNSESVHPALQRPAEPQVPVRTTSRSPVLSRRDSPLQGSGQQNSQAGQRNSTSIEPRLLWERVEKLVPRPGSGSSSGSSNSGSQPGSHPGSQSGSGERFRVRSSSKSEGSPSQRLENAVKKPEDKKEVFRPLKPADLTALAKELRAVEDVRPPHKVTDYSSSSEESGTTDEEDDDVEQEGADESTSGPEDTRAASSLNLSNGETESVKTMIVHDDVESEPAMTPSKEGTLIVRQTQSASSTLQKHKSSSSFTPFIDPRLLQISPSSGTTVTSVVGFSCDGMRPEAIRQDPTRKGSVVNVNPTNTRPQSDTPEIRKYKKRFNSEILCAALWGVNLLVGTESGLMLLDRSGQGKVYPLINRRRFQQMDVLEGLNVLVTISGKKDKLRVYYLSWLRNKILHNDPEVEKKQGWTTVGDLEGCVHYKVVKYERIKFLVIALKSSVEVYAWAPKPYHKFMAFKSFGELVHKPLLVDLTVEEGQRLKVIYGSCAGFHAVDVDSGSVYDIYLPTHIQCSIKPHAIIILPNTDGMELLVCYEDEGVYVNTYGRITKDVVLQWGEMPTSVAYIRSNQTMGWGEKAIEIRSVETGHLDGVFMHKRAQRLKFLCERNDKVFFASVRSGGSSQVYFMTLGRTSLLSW

[5] = biological target: ProfilerPro Kinase Selectivity Assay Kit kinases (Homo sapiens, UniProt O96017); assay type: biochemical; conditions: CHK2; 1 μM compound concentration
[6] = biological target: ProfilerPro Kinase Selectivity Assay Kit kinases (Homo sapiens, UniProt P08069); assay type: biochemical; conditions: IGF1R; 1 μM compound concentration
[7] = biological target: ProfilerPro Kinase Selectivity Assay Kit kinases (Homo sapiens, UniProt P17612); assay type: biochemical; conditions: PKA alpha; 1 μM compound concentration
[8] = biological target: ProfilerPro Kinase Selectivity Assay Kit kinases (Homo sapiens, UniProt P27361); assay type: biochemical; conditions: ERK1; 1 μM compound concentration
ProfilerPro Kinase Selectivity Assay Kit kinases (Homo sapiens, UniProt P27361), sequence (P27361 2-379 limits assumed): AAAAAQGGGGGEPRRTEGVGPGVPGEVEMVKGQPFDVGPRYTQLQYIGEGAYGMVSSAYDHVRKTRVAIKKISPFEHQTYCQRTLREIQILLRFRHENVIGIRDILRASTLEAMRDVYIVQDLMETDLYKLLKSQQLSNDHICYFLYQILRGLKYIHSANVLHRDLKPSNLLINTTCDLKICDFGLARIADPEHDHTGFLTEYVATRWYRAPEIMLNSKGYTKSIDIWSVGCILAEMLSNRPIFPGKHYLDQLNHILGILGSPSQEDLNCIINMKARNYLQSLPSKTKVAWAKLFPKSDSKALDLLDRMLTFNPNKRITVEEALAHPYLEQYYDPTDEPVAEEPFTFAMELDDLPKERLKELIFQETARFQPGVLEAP

[9] = biological target: ProfilerPro Kinase Selectivity Assay Kit kinases (Homo sapiens, UniProt P43405); assay type: biochemical; conditions: SYK; 1 μM compound concentration
[10] = biological target: ProfilerPro Kinase Selectivity Assay Kit kinases (Homo sapiens, UniProt Q05513); assay type: biochemical; conditions: PKC zeta; 1 μM compound concentration
[11] = biological target: ProfilerPro Kinase Selectivity Assay Kit kinases (Homo sapiens, UniProt Q06187); assay type: biochemical; conditions: BTK; 1 μM compound concentration
ProfilerPro Kinase Selectivity Assay Kit kinases (Homo sapiens, UniProt Q06187), sequence (Q06187 2-659 limits assumed): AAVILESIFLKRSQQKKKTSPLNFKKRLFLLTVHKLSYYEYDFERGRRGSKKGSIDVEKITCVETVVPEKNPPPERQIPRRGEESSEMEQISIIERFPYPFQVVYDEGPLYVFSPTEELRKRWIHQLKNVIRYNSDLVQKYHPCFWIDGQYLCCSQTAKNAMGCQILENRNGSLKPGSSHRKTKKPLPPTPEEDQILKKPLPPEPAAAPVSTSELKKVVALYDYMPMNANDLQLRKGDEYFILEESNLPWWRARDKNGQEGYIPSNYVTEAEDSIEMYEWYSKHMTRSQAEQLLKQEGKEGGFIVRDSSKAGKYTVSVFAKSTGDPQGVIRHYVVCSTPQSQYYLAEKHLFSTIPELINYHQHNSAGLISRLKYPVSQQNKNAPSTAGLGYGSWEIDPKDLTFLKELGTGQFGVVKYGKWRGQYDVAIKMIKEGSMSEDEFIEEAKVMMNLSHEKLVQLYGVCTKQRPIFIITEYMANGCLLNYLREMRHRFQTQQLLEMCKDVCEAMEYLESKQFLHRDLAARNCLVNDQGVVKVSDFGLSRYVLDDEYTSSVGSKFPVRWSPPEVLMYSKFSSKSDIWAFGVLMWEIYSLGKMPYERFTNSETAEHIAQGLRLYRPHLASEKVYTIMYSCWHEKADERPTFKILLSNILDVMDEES

[12] = biological target: ProfilerPro Kinase Selectivity Assay Kit kinases (Homo sapiens, UniProt Q13177); assay type: biochemical; conditions: PAK2; 1 μM compound concentration
ProfilerPro Kinase Selectivity Assay Kit kinases (Homo sapiens, UniProt Q13177), sequence (Q13177 2-524 limits assumed): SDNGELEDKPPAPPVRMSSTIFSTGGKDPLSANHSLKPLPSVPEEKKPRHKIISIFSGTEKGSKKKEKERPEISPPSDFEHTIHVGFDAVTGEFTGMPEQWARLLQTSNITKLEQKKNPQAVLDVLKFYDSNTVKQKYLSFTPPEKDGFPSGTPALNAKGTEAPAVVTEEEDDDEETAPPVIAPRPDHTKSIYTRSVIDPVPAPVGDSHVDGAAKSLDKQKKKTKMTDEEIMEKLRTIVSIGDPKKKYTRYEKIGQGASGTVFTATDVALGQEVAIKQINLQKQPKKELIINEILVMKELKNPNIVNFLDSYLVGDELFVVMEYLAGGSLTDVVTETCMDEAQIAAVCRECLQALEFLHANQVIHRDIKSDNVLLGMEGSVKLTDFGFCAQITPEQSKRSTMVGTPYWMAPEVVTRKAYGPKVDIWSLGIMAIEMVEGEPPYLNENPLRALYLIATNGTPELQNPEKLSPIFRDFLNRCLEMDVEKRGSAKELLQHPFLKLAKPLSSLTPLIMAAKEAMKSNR

[13] = biological target: ProfilerPro Kinase Selectivity Assay Kit kinases (Homo sapiens, UniProt Q9BZL6); assay type: biochemical; conditions: PKD2; 1 μM compound concentration
PI3Kα = PI3Kα (Homo sapiens (Human), UniProt P42336); conditions: read-out: PI3Kα AlphaScreen ® Ki
[14] = tested on: phosphorylation of Akt at Serine 473 in U87 MG cells; assay: cells; conditions: Homo sapiens, U-87 MG, 2 h, read-out: U87Cell IC50, pAkt (Ser 473), U87 MG cells, two hours with compound
[15] = biological target: human mutant B-raf (HuBraf V600E) (Homo sapiens (Human), UniProt P15056, V600E); conditions: at 10 μM compound concentration; POC = 100 − percent inhibition
human mutant B-raf (HuBraf V600E), sequence (P15056 whole entry V600E): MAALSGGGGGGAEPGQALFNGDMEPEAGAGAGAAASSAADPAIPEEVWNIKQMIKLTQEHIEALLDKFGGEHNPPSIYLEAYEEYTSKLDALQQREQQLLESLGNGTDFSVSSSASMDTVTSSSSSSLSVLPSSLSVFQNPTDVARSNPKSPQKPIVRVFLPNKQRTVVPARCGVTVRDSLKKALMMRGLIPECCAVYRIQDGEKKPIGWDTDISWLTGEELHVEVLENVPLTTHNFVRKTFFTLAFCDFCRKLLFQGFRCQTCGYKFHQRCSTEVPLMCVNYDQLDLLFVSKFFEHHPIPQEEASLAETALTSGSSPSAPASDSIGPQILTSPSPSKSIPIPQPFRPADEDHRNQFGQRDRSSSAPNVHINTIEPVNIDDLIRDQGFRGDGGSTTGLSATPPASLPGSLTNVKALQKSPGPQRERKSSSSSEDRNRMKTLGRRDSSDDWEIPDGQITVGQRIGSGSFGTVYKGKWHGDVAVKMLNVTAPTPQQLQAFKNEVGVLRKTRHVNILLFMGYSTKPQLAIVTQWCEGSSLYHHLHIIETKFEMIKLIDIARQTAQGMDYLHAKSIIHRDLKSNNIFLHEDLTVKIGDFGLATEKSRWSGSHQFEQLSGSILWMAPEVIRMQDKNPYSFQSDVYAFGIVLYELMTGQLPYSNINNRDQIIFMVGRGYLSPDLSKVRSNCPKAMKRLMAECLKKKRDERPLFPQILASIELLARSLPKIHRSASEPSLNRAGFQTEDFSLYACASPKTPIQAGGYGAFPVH

| SMILES | POC (Percent of control) SGK1 [1] | POC (Percent of control) CHK1 [2] | POC (Percent of control) AURORA A [3] | POC (Percent of control) HGK [4] | POC (Percent of control) CHK2 [5] | POC (Percent of control) IGF1R [6] | POC (Percent of control) PKA alpha [7] | POC (Percent of control) ERK1 [8] | POC (Percent of control) SYK [9] | POC (Percent of control) PKC zeta [10] | POC (Percent of control) BTK [11] | POC (Percent of control) PAK2 [12] | POC (Percent of control) PKD2 [13] | Ki (PI3Kα) | IC50 [14] | Mutant B-raf HTRF Assay POC Mean n = 2 [15] |
| --- | --- | --- | --- | --- | --- | --- | --- | --- | --- | --- | --- | --- | --- | --- | --- | --- |
| Cc1nc(N)nc(-c2cccnc2Nc2cccc3[nH]ccc23)n1 [Example 22, N-(3-(4-Amino-6-Methyl-1,3,5-Triazin-2-yl)Pyridin-2-yl)-1H-Indol-4-Amine] | 99 POC | 103 POC | 102 POC | 97 POC | 102 POC | 97 POC | 97 POC | 99 POC | 96 POC | 98 POC | 99 POC | 99 POC | 99 POC |  |  | 118% of Control (POC) |
| Cc1nc(N)nc(-c2cccnc2Nc2cccc(O)c2)n1 [Example 23, 3-(3-(4-Amino-6-Methyl-1,3,5-Triazin-2-yl)Pyridin-2-Ylamino)Phenol] | 102 POC | 105 POC | 112 POC | 99 POC | 101 POC | 101 POC | 99 POC | 104 POC | 110 POC | 102 POC | 100 POC | 96 POC | 104 POC |  |  | 100% of Control (POC) |
| Cc1nc(-c2cccnc2Nc2cccc3[nH]ncc23)c2nc[nH]c2n1 [Example 57, N-(3-(2-methyl-9H-purin-6-yl)pyridin-2-yl)-1H-indazol-4-amine] | 92 POC | 106 POC | 99 POC | 93 POC | 98 POC | 77 POC | 100 POC | 100 POC | 100 POC | 100 POC | 98 POC | 95 POC | 97 POC |  |  | 87% of Control (POC) |

The next lines start with the values.

| POC (Percent of control) SGK1 [1] | POC (Percent of control) CHK1 [2] | POC (Percent of control) AURORA A [3] | POC (Percent of control) HGK [4] | POC (Percent of control) CHK2 [5] | POC (Percent of control) IGF1R [6] | POC (Percent of control) PKA alpha [7] | POC (Percent of control) ERK1 [8] | POC (Percent of control) SYK [9] | POC (Percent of control) PKC zeta [10] | POC (Percent of control) BTK [11] | POC (Percent of control) PAK2 [12] | POC (Percent of control) PKD2 [13] | Ki (PI3Kα) | IC50 [14] | Mutant B-raf HTRF Assay POC Mean n = 2 [15] | SMILES |
| --- | --- | --- | --- | --- | --- | --- | --- | --- | --- | --- | --- | --- | --- | --- | --- | --- |
| 96 POC | 107 POC | 100 POC | 85 POC | 94 POC | 91 POC | 99 POC | 101 POC | 99 POC | 98 POC | 97 POC | 98 POC | 87 POC | 0.002 µM | 0.028 µM |  | COc1ccc(Nc2ncc(Cc3ccc(S(C)(=O)=O)cc3)cc2-c2nc(C)nc3[nH]cnc23)cn1 [Example 103, N-(6-methoxypyridin-3-yl)-3-(2-methyl-9H-purin-6-yl)-5-(4-(methylsulfonyl)benzyl)pyridin-2-amine] |
| 97 POC | 101 POC | 94 POC | 104 POC | 99 POC | 92 POC | 96 POC | 101 POC | 86 POC | 142 POC | 102 POC | 102 POC | 92 POC |  |  | 97% of Control (POC) | COc1ccc(Nc2ncccc2-c2nc(C)nc3[nH]cnc23)cn1 [Example 58, N-(6-methoxypyridin-3-yl)-3-(2-methyl-9H-purin-6-yl)pyridin-2-amine] |
